Common to all, as to experiment: DTP human tumour cell line panel, 48 h
Test [1] has as its system SF-268 CNS.
In test [2] the test system is A549 NSCLC.
Test [3] has as its system NCI-H23 lung.
The subject of test [4] is SK-MEL-28 melanoma.
Test [5] concerns HCT-15 colon.
The subject of test [6] is OVCAR-4 ovarian.
Test [7] concerns HS 578T breast.
Test [8] relates to UACC-62 melanoma.
Test [9] deals with MDA-N.
In test [10] the test system is UACC-257 melanoma.

The structures appear in SMILES notation.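 All cell lines were grown in 96-well plates and treated with compound for 48 hours. GI50 = concentration required for 50% inhibition of growth. TGI denotes the concentration required for complete inhibition of growth.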

What is called TGI is the concentration at which net growth stops. A word on the GI50: it is the concentration at which growth is held to half of that of the control.

For `NS(=O)(=O)c1ccc(N=Nc2ccc(O)c(C(=O)O)c2)cc1`, the TGI in test [1], in test [2], in test [3], in test [4], in test [5] and in test [6] was above 100 µM each time. Also, the TGI in test [7], in test [8], in test [9] and in test [10] was above 100 µM throughout.
Consider `Cc1ccc(/C=C2\N=C(N3CCCC(CO)C3)NC2=O)cc1` (stereo not drawn), for which the TGI in test [1], in test [2], in [3], in [4], in [5] and in [6] was above 100 µM in each case. Besides, the TGI in test [7], in test [8], in test [9] and in [10] was above 100 µM each time.
For the molecule `CCOc1cc2c(cc1O)C(N)C[C@@H]1[C@@H]2CC[C@]2(C)[C@@H](O)CC[C@@H]12` (stereo partly drawn), the TGI in test [1], in test [3], in test [4], in test [5], in [6] and in [7] was above 100 µM each time. The TGI in test [8], in [9] and in test [10] was above 100 µM in each case. Also, the GI50 in [8] was 18.7 µM.
As for `CN(C)CCCNC(=O)c1cn2c(ccc3sc4ccccc4c(=O)c32)n1`, the TGI in test [1] was determined as 9.96 µM; in test [2], 28.3 µM; in test [3], 28.4 µM; in test [4], 19.6 µM; in test [5], 10.7 µM; in [6], 28.1 µM. The TGI was determined as 36.1 µM in [7], 35.9 µM in test [8], 9.88 µM in test [9] and 30.3 µM in test [10].
Take `Cc1ccc2c(c1C)C(=O)/C(=C/c1cccc(C)c1C(=O)O)C2`: the TGI in test [1], in test [2], in test [3], in test [4], in test [5] and in test [6] was above 100 µM each time. Further, the TGI in test [7], in test [8], in test [9] and in test [10] was above 100 µM each time.
On to `CCCCCCCCCCCCO[P+](=O)OCCCCCCCCCCCC`, for which the TGI in test [1], in test [2], in [3], in test [4], in test [5] and in test [6] was above 100 µM each time. Besides, the total growth inhibition concentration (TGI) in [7] was above 100 µM; in test [8] it was above 100 µM; in test [9] it was above 100 µM; in test [10], 62.2 µM.
Consider `CSCCCNC(=O)[C@H](CSC)NC(=O)c1csc(CCNC(=O)[C@@H](NSc2ccccc2[N+](=O)[O-])C(C)O)n1` (stereo partly drawn), for which the TGI in test [1], in test [2], in test [3], in test [4], in [5] and in test [6] was above 100 µM each time. Besides, the TGI in test [7], in [8], in test [9] and in test [10] was above 100 µM each time.
In the case of `CN1CCN([C@H]2C[C@H]3[C@@H]4CC=C5C[C@@H](O)CC[C@]5(C)[C@H]4CC[C@]3(C)[C@H]2O)CC1`, the TGI in test [1] is above 59.4 µM; in test [2] it was above 100 µM; in test [3], above 100 µM; in test [4] it was above 57.3 µM; in test [5], above 59.2 µM; in [6], above 56.6 µM. Also, the TGI is above 100 µM in [7], above 60.5 µM in test [8], 34.6 µM in [9] and above 69.3 µM in test [10].
As for `CCCCC[C@H]1CCCCCCCCCC(=O)OC2C(O[C@@H]3OC(C)[C@H](OC(=O)[C@@H](C)CC)C(O[C@@H]4OC(C)[C@H](O)C(O)[C@@H]4O)[C@@H]3OC(=O)[C@H](C)CC)[C@H](OC3C(O)[C@@H](O)C(C)O[C@H]3O1)OC(CO)[C@H]2O` (stereo partly drawn), the TGI was 33.4 µM in [1]; 31.2 µM in [2]; 34 µM in [3]; 30.9 µM in [4]; 30.6 µM in test [5]; 36.3 µM in [6]. For the same molecule, the TGI in [7] came to 35.8 µM; in [8], 30.9 µM; in test [9] it was 31.4 µM; in [10], 29.2 µM.
For `O=[N+]([O-])/C(C(Cl)=C(Cl)Cl)=C(/Nc1ccccc1)Sc1ccccc1`, the total growth inhibition concentration (TGI) in test [1] turned out to be 28.2 µM; in test [2], 50.2 µM; in test [3], 36.2 µM; in [4], 36 µM; in test [5], 41.6 µM; in [6], 37.3 µM. For the same molecule, the TGI in [7] was above 100 µM; in [8], 39.9 µM; in test [9] it was 56.3 µM; in test [10] it was 35.6 µM.
Take `CC/C(N)=N\NC(=O)OC(C)(C)C`: the TGI in test [1], in test [2], in test [3], in [4], in test [5] and in test [6] was above 100 µM each time. The TGI in test [7], in test [8], in test [9] and in test [10] was above 100 µM in each case.
Turning to `Cc1ccc(NC(=O)CC(=O)n2nc(C)c(N=Nc3cccc(C)c3)c2C)cc1`, the total growth inhibition concentration (TGI) in [1], in test [2], in test [3], in test [4], in [5] and in [6] was above 100 µM each time. Besides, the TGI in [7], in test [8], in test [9] and in [10] was above 100 µM in each case.
Consider `CC(C)(C)[Si](C)(C)OC[C@H](/C=C\CCCC(=O)O)NC1(c2ccccc2)c2ccccc2-c2ccccc21`, for which the TGI in test [1] was 35.4 µM; in test [2], above 100 µM; in test [3], 63.2 µM; in test [4], 33 µM; in [5] it was 50.9 µM; in test [6], above 100 µM. In addition, the TGI in test [7] was 50.5 µM; in [8], 36 µM; in [9] it was above 100 µM; in [10], 43.4 µM.
As for `CCOC(=O)CCC(NC(=O)c1ccc(Nc2nc3ccccc3nc2C(=O)OCC)cc1)C(=O)OCC` (stereo not drawn), the TGI in [1] is 43.7 µM; in [2], 14.3 µM; in [3], 17.8 µM; in test [4], above 100 µM; in test [5] it was above 100 µM; in [6], 3.91 µM. The TGI in [7] was 21.7 µM; in test [8], 9.15 µM; in [9], above 100 µM; in test [10], above 100 µM.
In the case of `CCOC(=O)c1cc(Br)c(-c2cc(C)co2)[nH]1`, the TGI in test [1], in test [2], in [3], in test [4], in test [5] and in test [6] was above 100 µM throughout. Besides, the TGI in test [7], in test [8], in test [9] and in test [10] was above 100 µM in each case.
Consider `CC(C)c1ccc(/C=C2\CSCC3=C2N=C2SCC(=O)N2C3c2ccc(C(C)C)cc2)cc1` (stereo not drawn), for which the TGI in test [1], in test [2], in test [3], in test [4], in [5] and in test [6] was above 100 µM in each case. In addition, the total growth inhibition concentration (TGI) in test [7], in test [8], in test [9] and in test [10] was above 100 µM in each case.
As for `Nc1cc2c3c(cccc3c1)C(=O)N(c1ccc(OCCN3CCCC3)cc1)C2=O`, the TGI in test [1] was above 59.7 µM; in test [2], 50.8 µM; in test [3], 28.2 µM; in [4], 47 µM; in test [5], 26.8 µM; in test [6] it was 33.8 µM. The TGI came to 55.7 µM in test [7], 33.3 µM in test [8], 34.7 µM in test [9] and 31.5 µM in [10].
On to `O=C(Cc1ccccc1)NN1C(=O)/C(=C\c2ccccc2O)SC1=Nc1ccccc1`, for which the total growth inhibition concentration (TGI) in test [1], in test [2], in [3], in test [4], in test [5] and in test [6] was above 100 µM each time. Besides, the TGI in test [7], in [8], in test [9] and in test [10] was above 100 µM throughout.
With `O=S(=O)(O)c1ccc2c(N=Nc3ccc(Sc4ccc(N=Nc5c(O)ccc6cc(S(=O)(=O)O)ccc56)cc4)cc3)c(O)ccc2c1`, the TGI in test [1], in [2], in [3], in [4], in [5] and in [6] was above 100 µM throughout. Also, the TGI in test [7], in [8], in [9] and in test [10] was above 100 µM throughout.
As for `Cc1cc(=O)oc2c(CNC(CC(C)C)C(=O)O)c(O)ccc12` (stereo not drawn), the TGI in [1], in [2], in test [3], in test [4], in test [5] and in test [6] was above 100 µM in each case. Further, the TGI in test [7], in test [8], in test [9] and in test [10] was above 100 µM throughout.
For the molecule `Cc1ccc(S[C@@H](C)[C@@](O)(C(N)=O)c2ccccc2)cc1`, the TGI in test [1] is above 100 µM; in test [2], above 100 µM; in test [3], above 100 µM; in test [4], above 100 µM; in [5], above 100 µM; in [6], 46.3 µM. In addition, the TGI in [7], in [8], in test [9] and in [10] was above 100 µM each time.
As for `CCOC(=O)C(C(=O)COC(C)(C)C)[C@@H]1C=C[C@H](OC(C)=O)C1` (stereo partly drawn), the TGI in test [1], in test [2], in test [3], in test [4], in [5] and in test [6] was above 100 µM each time. The TGI in test [7], in test [8], in [9] and in test [10] was above 100 µM in each case.
With `FC(F)(F)c1ccc2nc(Sc3ccc4ccccc4c3)cnc2c1`, the TGI in [1], in test [2], in [3], in test [4], in [5] and in [6] was above 100 µM throughout. The TGI in test [7], in test [8], in test [9] and in [10] was above 100 µM in each case.
For the molecule `CC(=O)NC1C(OCc2ccccc2)OC(CO)C(O)C1OCC(=O)N[C@@H](C)C(=O)N[C@H](CCC(=O)NCCCNc1ccc([N+](=O)[O-])c2[nH]c3ccccc3c(=O)c12)C(N)=O` (stereo partly drawn), the TGI is above 100 µM in test [2]; above 100 µM in test [3]; above 100 µM in [4]; above 100 µM in [5]; 94.8 µM in [6]; 90.2 µM in test [7]. Besides, the TGI in test [8], in test [9] and in [10] was above 100 µM throughout.
Take `COc1ccc2c(c1)CCC/C2=N\NS(=O)(=O)c1c(C)cc(C)cc1C`: the TGI in test [2] was above 100 µM; in test [3], 72.4 µM; in test [4], above 100 µM; in test [5], 95.3 µM; in [6], 92.7 µM; in [7], 61.8 µM. For the same molecule, the values for the TGI in test [8], in test [9] and in test [10] were 42.6 µM, above 100 µM and above 100 µM, respectively.

The values are drawn from PubChem BioAssay (NCI).
